The values that follow come from patent US10583109B2, “Use of silver(I) complexes as anticancer agents” (University of Johannesburg, priority 2012, dated 2020).

This series relates to SNO-oesophageal cancer cells. The experiment in a line: Flow cytometric analysis (Annexin-V FITC / PI) of apoptosis and/or necrosis in SNO-oesophageal cancer cells. It is filed as cell-based. To be noted: 10 μM. On the procedure:
To determine if either apoptosis or necrosis occurred, the cells were double labelled with Annexin-V FITC and Propidium Iodide (PI) by means of an Annexin-V FITC assay kit (Serotec, UK). This was done according to manufacturer's instructions with a few adjustments. Briefly, the cells (±3×10^5 cells/ml) were washed twice with cold phosphate buffered saline (PBS), followed by the addition of 100 μl 1× binding buffer. Two and a half microliters of Annexin-V along with 5 μl PI were added in the dark and was incubated for 15 minutes at room temperature. After incubation, 400 μl 1× binding buffer was added and cells were analysed using the FACSAria flow cytometer (BD Biosciences, San Jose, Calif.) with FACSDiva software (BD Biosciences, San Jose, Calif.) 492 nm (excitation) and 520 nm for Annexin and 488 nm and 575 nm(emission) for PI.
The cell membrane contains a negatively charged phosphatidylserine (PS) on the inner leaflet and is exposed when apoptosis or necrosis takes place. Annexin-V interacts with PS in both apoptotic and necrotic cells, making these cellular deaths undistinguishable. This is overcome by using PI as an alternative label that interacts with the exposed DNA of necrotic cells only, leading to the fluorescent detection of both these labels. Pie charts (FIG. 9) were constructed for all the controls (including Ligand-1 to Ligand-5) and the different silver(I) thiocyanate phosphine complexes (1)-(5).
Pie charts representing the four different flow cytometric quadrants of Annexin-V and […] to determine the mode of cellular death induced in differentially treated SNO-oesophageal cells are represented in FIG. 9. An untreated control (A), apoptotic control (B) and necrotic control (C) were included. Cells were treated with 10 μM of the different ligands including the silver(I) thiocyanate phosphine complexes (1)-(5). An average percentage was calculated for all segments where the SEM is n=3 for all treatments except for 15% H2O2 (n=2). The four segments represent the following: White segment—negative for FITC and PI, Light grey segment—positive for FITC but negative for PI, Dark grey segment—positive for PI but negative for FITC and Black segment—positive for both FITC and PI. Cells undergoing early apoptosis are represented by the light grey segment, while those of late apoptosis and primary necrosis are represented by the black segment. Necrotic cells are represented by the dark grey segment and intact viable cells are shown by the white segment.
Approximately 3×10^5 cells were washed with ice cold phosphate buffered saline solution (PBS). The cells were double labeled using an Annexin-V FITC assay kit adjusting the protocol. A 1× binding buffer (100 μl) was used to fix the cells. Annexin-V (2.5 μl) and Propidium Iodide (PI—5 μl) labels were added respectively followed by a 15 minute incubation, at room temperature, in the dark. After the incubation period, 400 μl of the 1× binding buffer was added, where counting of the cellular events was made using an FACSAria flow cytometer (BD Biosciences, San Jose, Calif.) with FACSDiva software (BD Biosciences, San Jose, Calif.). This technique in particular identifies whether predicted apoptotic cell death (or necrosis) was induced by these complexes.
As observed in FIG. 14, dot blots represent the mode of cellular death induced in the SNO-oesophageal cancer cells after 24 hours of treatment. FIG. 14(a): 0.1% DMSO, FIG. 14(b): 100 μM CDDP, FIG. 14(c): 25% H2O2, FIG. 14(d-i): complexes (6)-(9). An average percentage was calculated for all quadrants where the SEM is n=2 for all treatments. The four quadrants represent the following: Quadrant Q3 is negative for FITC and PI, Quadrant Q4 is positive for FITC but negative for PI, Quadrant Q1 is positive for PI but negative for FITC and Quadrant Q2 is positive for both FITC and PI. Cells undergoing early apoptosis are more likely to be found in Quadrant Q4 while those of late apoptosis and primary necrosis will be found in Quadrant Q2. […]
On the technique in general: In flow cytometry, cells or beads pass a laser one at a time.

Consider [AgSCN{P(4-FC6H4)3}2]2 [complex (3)], for which, for the setting “24 hour treatment”, the “cancer cells in which apoptosis was induced (flow cytometry)” value was “more than half” and the “viable cells (flow cytometry)” value is reported as “approximately 28%”.
For the molecule `C1#[N+][Ag]([P+](c2ccccc2)(c2ccccc2)c2ccccc2)([P+](c2ccccc2)(c2ccccc2)c2ccccc2)[S]C#[N+][Ag]([P+](c2ccccc2)(c2ccccc2)c2ccccc2)([P+](c2ccccc2)(c2ccccc2)c2ccccc2)[S]1` [complex (1), [AgSCN(PPh3)2]2], the “viable cells (flow cytometry)” value (24 hour treatment) is listed as about 57.47%.
For the molecule `c1ccc([P+](c2ccccc2)(c2ccccc2)[Ag+]([P+](c2ccccc2)(c2ccccc2)c2ccccc2)([P+](c2ccccc2)(c2ccccc2)c2ccccc2)[P+](c2ccccc2)(c2ccccc2)c2ccccc2)cc1` [complex (9), AgNO3(PPh3)4], the “apoptotic cell death (flow cytometry, Q4 and Q2)” value (24 hours of treatment) is reported as 15.3%.
